Experimental data as given in publication PMC12526022, “Synthesis of First Copper Metal Complex of C=C Extended Curcuminoid Analogue: Structure, β-Cyclodextrin Association, and Biological Properties” (Molecules, 2025).

Assays:
yeast α-glucosidase = target: T1, yeast α-glucosidase (Saccharomyces cerevisiae, UniProt P53341); assay: Inhibition of yeast α-glucosidase (p-nitrophenyl-α-D-glucopyranoside substrate, OD 405 nm); format: biochemical; settings: for D.O. 405 nm / Inhibition (%): mean ± SEM; for IC50: mean ± standard error of the mean, n = 3-5, read-out: Yeast α-glucosidase inhibition, half-maximal inhibitory concentration (IC50)
T1 construct: purchased Sigma Aldrich G5003-100UN
T1 sequence (P53341 whole entry): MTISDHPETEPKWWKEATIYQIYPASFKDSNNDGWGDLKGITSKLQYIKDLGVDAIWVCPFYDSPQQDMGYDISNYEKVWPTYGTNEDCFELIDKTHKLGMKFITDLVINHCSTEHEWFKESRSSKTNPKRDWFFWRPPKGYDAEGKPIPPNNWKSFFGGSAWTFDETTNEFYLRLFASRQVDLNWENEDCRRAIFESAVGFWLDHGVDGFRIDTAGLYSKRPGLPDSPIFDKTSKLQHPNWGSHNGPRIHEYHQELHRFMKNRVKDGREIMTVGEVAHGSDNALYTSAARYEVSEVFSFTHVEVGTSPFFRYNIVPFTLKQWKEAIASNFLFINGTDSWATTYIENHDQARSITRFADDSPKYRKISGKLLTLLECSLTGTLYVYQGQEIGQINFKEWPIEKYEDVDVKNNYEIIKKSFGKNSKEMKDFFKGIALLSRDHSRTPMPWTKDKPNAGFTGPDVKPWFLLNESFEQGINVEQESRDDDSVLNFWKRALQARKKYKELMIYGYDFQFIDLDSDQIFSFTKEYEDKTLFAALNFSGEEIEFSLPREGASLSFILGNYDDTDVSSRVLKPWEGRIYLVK
Procedure: The inhibition of α-glucosidase was evaluated using a previously adapted method. Briefly, a solution (25 µL) of tested samples in DMSO-H2O 1:1 was added to 150 µL of phosphate buffer (PBS, 67 mM, pH 6.8) and incubated at 37 °C for 10 min with 25 µL of reduced glutatione (3 mM in PBS) and 25 µL of α-glucosidase type I solution (0.2 U/mL in PBS, CAS G5003-100UN) (Sigma Aldrich, Toluca, Estado de México, Mexico). Subsequently, 25 µL of the substrate solution (23.2 mM p-nitrophenyl-α-D-glucopyranoside, CAS N1377-1G, in PBS) (Sigma Aldrich, Toluca, Estado de México, Mexico) was added, and the mixture was incubated at 37 °C for 15 min under shaking. The reaction mixture was stopped by the addition of a […] 1M solution (50 µL), followed by agitation for 5 min. […] The percentage of inhibition was calculated according to the following equation:Inhibition (%) = [(Acontrol − Asample)/Acontrol] × 100 where A is the absorbance at 405 nm of the sample and the control.
Table S5. Inhibition of yeast α-glucosidase. Determination of half-maximal inhibitory concentration […]
Values represent the mean of three to five independent experiments ± standard error of the mean.
Data were examined by analysis of variance (ANOVA) followed by Dunnett's test to determine groups with significant differences. Values of p ≤0.05 (*) and p ≤ 0.01 (**) were considered significant differences from the control.

[1] = system: MCF-7 breast cancer cells; assay: Sulforhodamine B antiproliferative assay, MCF-7; format: cell-based; settings: MCF-7, 10 µM, vehicle DMSO, 48 h, NA: no activity
Procedure: (§1) Antiproliferative activity was evaluated by Sulforhodamine B assay against colon cancer (HCT-15), breast cancer (MCF-7), leukaemia ([…]), central nervous system glial (U-251), and prostate cancer (PC-3) cell lines, which the National Cancer Institute supplied. The cell lines were cultured in RPMI-1640 medium supplemented with 10% fetal bovine serum, 2 mM L-glutamine, […] penicillin G, 100 µg/mL streptomycin sulfate, and 0.25 µg/mL amphotericin B Gibco (Thermo Fisher Scientific, Grand Island, NY, USA). They were incubated at 37 °C in an atmosphere of 5% CO2 and 95% humidity. For the assay, cells were suspended in a 0.1% trypsin-EDTA solution (Gibco). Cell viability was counted using a hematocytometer and diluted with medium to achieve the following densities: 5 × 10^4 cells/mL (SKLU-1, K562) and 7.5 × 10^4 cells/mL (U251, PC-3). […]
(§2) After 24 h, the cells were treated with 100 µL of the compounds to be evaluated, previously dissolved in RPMI-1640 medium and 1% DMSO, and then incubated for 48 h at 37 °C in a 5% CO2 atmosphere. […]
(§3) After 48 h, the adherent cells were fixed by adding 50 µL of a cold 50% (m/vol) […] solution and incubated at 4 °C for 60 min. […] The optical density of the treated samples was determined in a Bio Kinetics microplate reader at a wavelength of 515 nm (Synergy HT, BioTek, Winooski, VT, USA). […]

[2] = Solubility in polar solvents (observation); format: physicochemical
[3] = system: COS-7 monkey kidney fibroblast; assay: Sulforhodamine B assay, COS7 healthy cells; format: cell-based; settings: 10 µM, vehicle DMSO, 48 h
[4] = system: PC-3 prostate cancer cells; assay: Sulforhodamine B antiproliferative assay, PC-3; format: cell-based; settings: PC-3, 10 µM, vehicle DMSO, 48 h, NA: no activity
Procedure: as §1, §2, §3

SKLU-1 lung cancer cells = assay: Sulforhodamine B antiproliferative assay, SKLU-1; format: cell-based; settings: SKLU-1, 10 µM, vehicle DMSO, 48 h, NA: no activity
Procedure: as §1, §2, §3

[5] = system: HCT-15 colon cancer cells; assay: Sulforhodamine B antiproliferative assay, HCT-15; format: cell-based; settings: HCT-15, 10 µM, vehicle DMSO, 48 h, NA: no activity
Procedure: as §1, §2, §3

α-glucosidase = target: α-glucosidase; set-up: method as in PMID 16387392, doi:10.1016/j.kjs.2024.100312; settings: literature values for comparison; read-out: α-glucosidase inhibitory activity IC50; cited from earlier work

Compound	inhibition at 10 µM (yeast α-glucosidase) [%]	inhibition at 100 µM (yeast α-glucosidase) [%]	D.O. 405 nm (yeast α-glucosidase; 1 µM)	D.O. 405 nm (yeast α-glucosidase; 10 µM)	D.O. 405 nm (yeast α-glucosidase; 100 µM)	Solubility in polar solvents (in words) [2]	Cellular growth inhibition (%) [3] [%]	inhibition at 17.78 µM (yeast α-glucosidase) [%]	inhibition at 31.62 µM (yeast α-glucosidase) [%]	inhibition at 56.23 µM (yeast α-glucosidase) [%]	D.O. 405 nm (yeast α-glucosidase; 17.78 µM)	D.O. 405 nm (yeast α-glucosidase; 31.62 µM)	D.O. 405 nm (yeast α-glucosidase; 56.23 µM)	IC50 (yeast α-glucosidase) [µM]	IC50 (α-glucosidase) [µM]	further results
OC[C@H]1O[C@@H]2O[C@H]3[C@H](O)[C@@H](O)[C@@H](O[C@H]4[C@H](O)[C@@H](O)[C@@H](O[C@H]5[C@H](O)[C@@H](O)[C@@H](O[C@H]6[C@H](O)[C@@H](O)[C@@H](O[C@H]7[C@H](O)[C@@H](O)[C@@H](O[C@H]8[C@H](O)[C@@H](O)[C@@H](O[C@H]1[C@H](O)[C@H]2O)O[C@@H]8CO)O[C@@H]7CO)O[C@@H]6CO)O[C@@H]5CO)O[C@@H]4CO)O[C@@H]3CO [BCD, β-cyclodextrin]	1.11 ± 4.12	2.31 ± 3.94	1.275±0.028	1.261±0.022	1.246±0.019											inhibition at 1 µM (yeast α-glucosidase): 0.2 ± 3.02%
O=C(/C=C(O)/C=C/C=C/c1ccccc1)/C=C/C=C/c1ccccc1 [Compound 2]	7.61 ± 2.8	86.9 ± 7.53		1.205±0.051	0.174±0.105	poor solubility	7.35	16.9 ± 3.75	31.6 ± 6.86	66.3 ± 10.2	1.084±0.067	0.894±0.105	0.446±0.147	45.6		inhibition at 10 µM ([1]; Homo sapiens, MCF7, read-out: Cellular growth inhibition (%)): 11.5%; inhibition at 10 µM ([4]; read-out: Cellular growth inhibition (%)): 11.8%; inhibition at 10 µM (SKLU-1 lung cancer cells; Homo sapiens, SK-LU-1, read-out: Cellular growth inhibition (%)): 7.45%; inhibition at 10 µM ([5]; Homo sapiens, read-out: Cellular growth inhibition (%)): 15.9%
O=C(C=CC=Cc1ccccc1)C=C([O-])C=CC=Cc1ccccc1.O=C(C=CC=Cc1ccccc1)C=C([O-])C=CC=Cc1ccccc1.[Cu+2] [Compound 3]			1.314±0.041	1.226±0.025	1.071±0.044	poor solubility	15.49							> 100		Cellular growth inhibition (%) [1]: 12.35%; α-glucosidase inhibitory activity (in words) (yeast α-glucosidase): no inhibition activity at high concentrations; Inhibition (%) (yeast α-glucosidase; 1 µM): -2.68±1.55%; Inhibition (%) (yeast α-glucosidase; 10 µM): 4.11±1.43%; Inhibition (%) (yeast α-glucosidase; 100 µM): 16.19 ± 3.18%; Cellular growth inhibition (%) [4]: 1.95%; Cellular growth inhibition (%) (SKLU-1 lung cancer cells): 0.58%; Cellular growth inhibition (%) [5]: 12.04%
O=c1c(O)c(-c2ccc(O)c(O)c2)oc2cc(O)cc(O)c12 [Quercetin, quercetin, reference compound]	16.2 ± 2.95			1.142±0.064				36.9 ± 1.16	59.1 ± 0.88	72.2 ± 1.55	0.861±0.044	0.556±0.019	0.376±0.016			inhibition at 5.62 µM (yeast α-glucosidase): 6.31 ± 2.5%; D.O. 405 nm (yeast α-glucosidase; 5.62 µM): 1.276±0.063
O=C(/C=C/c1ccc(O)cc1)CC(=O)/C=C/c1ccc(O)cc1 [bisdemetoxicurcumin]															90.6	
COc1cc(/C=C/C(O)=C/C(=O)/C=C/c2ccc(O)cc2)ccc1O [demetoxicurcumin]															82.4	
